From US9486506B2 (Novo Nordisk A/S, priority 2011, dated 2016) come the findings set out here.

One data set concerns the target T1, glucagon receptor (Homo sapiens, UniProt P47871).
T1 construct: expressed in transfected cells
The data set can be described thus: Assay (I) Glucagon activity (cAMP biosensor, FLIPR). The class given is cell-based.

The nature of data set [1]: Assay (X) Chemical stability assessment by RP-UPLC. Type of data set: physicochemical. Conditions: pH 8.15, 14 days at 37° C. vs 5° C., 333 μM.

Numbered stars: 1 amine (or outer) side, 2 acyl side, 3 side chain; on linkers, the order of the positions; unused ones are H or OH. Side chains are listed from the residue outwards. Peptide text beside a SMILES is read from it. * marks the point of attachment. C18 diacid = O=C(O)CCCCCCCCCCCCCCCCC(=O)*; C16 diacid = O=C(O)CCCCCCCCCCCCCCC(=O)*; γGlu = O=C(O)[C@H](CCC(=O)[*:2])N[*:1]; AEEA = NCCOCCOCC(=O)O

T1 sequence (P47871 26-477): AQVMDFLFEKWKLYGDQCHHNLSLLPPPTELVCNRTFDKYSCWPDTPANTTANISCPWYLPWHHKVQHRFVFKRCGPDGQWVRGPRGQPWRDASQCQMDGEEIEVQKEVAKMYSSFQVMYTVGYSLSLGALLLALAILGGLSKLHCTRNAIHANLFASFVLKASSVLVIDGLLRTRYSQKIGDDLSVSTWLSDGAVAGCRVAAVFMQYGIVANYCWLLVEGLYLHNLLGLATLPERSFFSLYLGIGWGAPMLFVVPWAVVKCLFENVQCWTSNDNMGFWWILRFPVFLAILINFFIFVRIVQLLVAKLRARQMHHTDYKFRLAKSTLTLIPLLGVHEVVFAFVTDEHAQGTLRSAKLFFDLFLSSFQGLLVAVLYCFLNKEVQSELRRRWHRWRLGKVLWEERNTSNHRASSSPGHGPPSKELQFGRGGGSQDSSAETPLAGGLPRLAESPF

As a reminder, the EC50 is the concentration giving half of the maximal effect. Lower therefore signals higher potency in that assay. As for `CC(C)C[C@H](NC(=O)[C@H](CC(C)C)NC(=O)[C@H](Cc1c[nH]c2ccccc12)NC(=O)[C@H](CCCCNC(=O)CC[C@H](NC(=O)CC[C@H](NC(=O)COCCOCCNC(=O)COCCOCCNC(=O)CC[C@H](NC(=O)CCCCCCCCCCCCCCC(=O)O)C(=O)O)C(=O)O)C(=O)O)NC(=O)[C@@H](NC(=O)[C@H](Cc1ccccc1)NC(=O)[C@H](CC(=O)O)NC(=O)[C@H](CCC(N)=O)NC(=O)[C@H](C)NC(=O)[C@H](CCCNC(=N)N)NC(=O)[C@H](CCCNC(=N)N)NC(=O)[C@H](CC(C)C)NC(=O)[C@H](CC(=O)O)NC(=O)[C@H](CC(C)C)NC(=O)[C@H](Cc1ccc(O)cc1)NC(=O)[C@H](CCCNC(=N)N)NC(=O)[C@H](CO)NC(=O)[C@H](Cc1ccc(O)cc1)NC(=O)[C@H](CC(=O)O)NC(=O)[C@H](CO)NC(=O)[C@@H](NC(=O)[C@H](Cc1ccccc1)NC(=O)[C@@H](NC(=O)CNC(=O)[C@H](CCC(N)=O)NC(=O)[C@H](CO)NC(=O)[C@@H](N)Cc1c[nH]cn1)[C@@H](C)O)[C@@H](C)O)C(C)C)C(=O)NCC(=O)N[C@H](C(=O)O)[C@@H](C)O` [Example 90, N^ε24-[(4S)-4-carboxy-4-[[(4S)-4-carboxy-4-[[2-[2-[2-[[2-[2-[2-[[(4S)-4-carboxy-4-(15-carboxypentadecanoylamino)butanoyl]amino]ethoxy]ethoxy]acetyl]amino]ethoxy]ethoxy]acetyl]amino]butanoyl]amino]butanoyl]-[Arg12,Leu16,Lys24,Leu27,Gly28]-Glucagon] (H-HSQGTFTSDYSRYLDLRRAQDFVK([γGlu-γGlu-AEEA-AEEA-γGlu-C16 diacid])WLLGT-OH), at glucagon receptor, the midpoint of the response, the EC50, lay at 0.09 nM. Moreover, the “Chemical stability [Purity loss/14 days 37 C.]” value in data set [1] was 5.4%.

The compound `CC(C)C[C@H](NC(=O)[C@H](Cc1ccc(O)cc1)NC(=O)[C@H](CCCNC(=N)N)NC(=O)[C@H](CO)NC(=O)[C@H](Cc1ccc(O)cc1)NC(=O)[C@H](CC(=O)O)NC(=O)[C@H](CO)NC(=O)[C@@H](NC(=O)[C@H](Cc1ccccc1)NC(=O)[C@@H](NC(=O)CNC(=O)[C@H](CCC(N)=O)NC(=O)[C@H](CO)NC(=O)[C@@H](N)Cc1c[nH]cn1)[C@@H](C)O)[C@@H](C)O)C(=O)N[C@@H](CC(=O)O)C(=O)N[C@@H](C)C(=O)N[C@@H](CCCNC(=N)N)C(=O)N[C@@H](CCCNC(=N)N)C(=O)N[C@@H](C)C(=O)N[C@@H](CCC(N)=O)C(=O)N[C@@H](CC(=O)O)C(=O)N[C@@H](Cc1ccccc1)C(=O)N[C@H](C(=O)N[C@@H](CCCCNC(=O)CC[C@H](NC(=O)CC[C@H](NC(=O)CC[C@H](NC(=O)CCCCCCCCCCCCCCCCC(=O)O)C(=O)O)C(=O)O)C(=O)O)C(=O)N[C@@H](Cc1c[nH]c2ccccc12)C(=O)N[C@@H](CC(C)C)C(=O)N[C@@H](CC(C)C)C(=O)N[C@@H](CO)C(=O)N[C@H](C(=O)O)[C@@H](C)O)C(C)C` [Example 92, N^ε24-[(4S)-4-carboxy-4-[[(4S)-4-carboxy-4-[[(4S)-4-carboxy-4-(17-carboxyheptadecanoylamino)butanoyl]amino]butanoyl]amino]butanoyl]-[Arg12,Ala16,Lys24,Leu27,Ser28]-Glucagon] (H-HSQGTFTSDYSRYLDARRAQDFVK([γGlu-γGlu-γGlu-C18 diacid])WLLST-OH) registered an EC50 on glucagon receptor of 0.066 nM. For the same compound, the “Chemical stability [Purity loss/14 days 37 C.]” value in data set [1] was determined as 6.5%.

Compound `CC(C)C[C@H](NC(=O)[C@H](Cc1ccc(O)cc1)NC(=O)[C@H](CCCCN)NC(=O)[C@H](CO)NC(=O)[C@H](Cc1ccc(O)cc1)NC(=O)[C@H](CC(=O)O)NC(=O)[C@H](CO)NC(=O)[C@@H](NC(=O)[C@H](Cc1ccccc1)NC(=O)[C@@H](NC(=O)CNC(=O)[C@H](CCC(N)=O)NC(=O)[C@H](CO)NC(=O)[C@@H](N)Cc1c[nH]cn1)[C@@H](C)O)[C@@H](C)O)C(=O)N[C@@H](CC(=O)O)C(=O)N[C@@H](CCC(=O)O)C(=O)N[C@@H](CCCNC(=N)N)C(=O)N[C@@H](CCCNC(=N)N)C(=O)N[C@@H](C)C(=O)N[C@@H](CCC(N)=O)C(=O)N[C@@H](CC(=O)O)C(=O)N[C@@H](Cc1ccccc1)C(=O)N[C@H](C(=O)N[C@@H](CCCCNC(=O)CC[C@H](NC(=O)CC[C@H](NC(=O)COCCOCCNC(=O)COCCOCCNC(=O)CC[C@H](NC(=O)CCCCCCCCCCCCCCC(=O)O)C(=O)O)C(=O)O)C(=O)O)C(=O)N[C@@H](Cc1c[nH]c2ccccc12)C(=O)N[C@@H](CC(C)C)C(=O)N[C@@H](CC(C)C)C(=O)N[C@@H](CO)C(=O)N[C@H](C(=O)O)[C@@H](C)O)C(C)C` [Example 93, N^ε24-[(4S)-4-carboxy-4-[[(4S)-4-carboxy-4-[[2-[2-[2-[[2-[2-[2-[[(4S)-4-carboxy-4-(15-carboxypentadecanoylamino)butanoyl]amino]ethoxy]ethoxy]acetyl]amino]ethoxy]ethoxy]acetyl]amino]butanoyl]amino]butanoyl]-[Glu16,Lys24,Leu27,Ser28]-Glucagon] (H-HSQGTFTSDYSKYLDERRAQDFVK([γGlu-γGlu-AEEA-AEEA-γGlu-C16 diacid])WLLST-OH; N-terminus and C-terminus assumed) returned an EC50 on glucagon receptor of 0.017 nM. The “Chemical stability [Purity loss/14 days 37 C.]” value in data set [1] came to 14%.

For the compound `CC(C)C[C@H](NC(=O)[C@H](Cc1ccc(O)cc1)NC(=O)[C@H](CCCNC(=N)N)NC(=O)[C@H](CO)NC(=O)[C@H](Cc1ccc(O)cc1)NC(=O)[C@H](CC(=O)O)NC(=O)[C@H](CO)NC(=O)[C@@H](NC(=O)[C@H](Cc1ccccc1)NC(=O)[C@@H](NC(=O)CNC(=O)[C@H](CCC(N)=O)NC(=O)[C@H](CO)NC(=O)[C@@H](N)Cc1c[nH]cn1)[C@@H](C)O)[C@@H](C)O)C(=O)N[C@@H](CC(=O)O)C(=O)N[C@@H](CCC(=O)O)C(=O)N[C@@H](CCCNC(=N)N)C(=O)N[C@@H](CCCNC(=N)N)C(=O)N[C@@H](C)C(=O)N[C@@H](CCC(N)=O)C(=O)N[C@@H](CC(=O)O)C(=O)N[C@@H](Cc1ccccc1)C(=O)N[C@H](C(=O)N[C@@H](CCCCNC(=O)CC[C@H](NC(=O)CC[C@H](NC(=O)COCCOCCNC(=O)COCCOCCNC(=O)CC[C@H](NC(=O)CCCCCCCCCCCCCCC(=O)O)C(=O)O)C(=O)O)C(=O)O)C(=O)N[C@@H](Cc1c[nH]c2ccccc12)C(=O)N[C@@H](CC(C)C)C(=O)N[C@@H](CC(C)C)C(=O)N[C@@H](CO)C(=O)N[C@H](C(=O)O)[C@@H](C)O)C(C)C` [Example 94, N^ε24-[(4S)-4-carboxy-4-[[(4S)-4-carboxy-4-[[2-[2-[2-[[2-[2-[2-[[(4S)-4-carboxy-4-(15-carboxypentadecanoylamino)butanoyl]amino]ethoxy]ethoxy]acetyl]amino]ethoxy]ethoxy]acetyl]amino]butanoyl]amino]butanoyl]-[Arg12,Glu16,Lys24,Leu27,Ser28]-Glucagon] (H-HSQGTFTSDYSRYLDERRAQDFVK([γGlu-γGlu-AEEA-AEEA-γGlu-C16 diacid])WLLST-OH; N-terminus and C-terminus assumed), the EC50 at glucagon receptor was determined as 0.029 nM. Further, the “Chemical stability [Purity loss/14 days 37 C.]” value in data set [1] is reported as 8.8%.

As to `CC(C)C[C@H](NC(=O)[C@H](Cc1c[nH]c2ccccc12)NC(=O)[C@H](CCCCNC(=O)CC[C@H](NC(=O)CC[C@H](NC(=O)COCCOCCNC(=O)COCCOCCNC(=O)CC[C@H](NC(=O)CCCCCCCCCCCCCCC(=O)O)C(=O)O)C(=O)O)C(=O)O)NC(=O)[C@@H](NC(=O)[C@H](Cc1ccccc1)NC(=O)[C@H](CC(=O)O)NC(=O)[C@H](CCC(N)=O)NC(=O)[C@H](C)NC(=O)[C@H](CCCNC(=N)N)NC(=O)[C@H](CCCNC(=N)N)NC(=O)[C@@H](NC(=O)[C@H](CC(=O)O)NC(=O)[C@H](CC(C)C)NC(=O)[C@H](Cc1ccc(O)cc1)NC(=O)[C@H](CCCCN)NC(=O)[C@H](CO)NC(=O)[C@H](Cc1ccc(O)cc1)NC(=O)[C@H](CC(=O)O)NC(=O)[C@H](CO)NC(=O)[C@@H](NC(=O)[C@H](Cc1ccccc1)NC(=O)[C@@H](NC(=O)CNC(=O)[C@H](CCC(N)=O)NC(=O)[C@H](CO)NC(=O)[C@@H](N)Cc1c[nH]cn1)[C@@H](C)O)[C@@H](C)O)C(C)C)C(C)C)C(=O)N[C@@H](CC(C)C)C(=O)N[C@@H](CO)C(=O)N[C@H](C(=O)O)[C@@H](C)O` [Example 95, N^ε24-[(4S)-4-carboxy-4-[[(4S)-4-carboxy-4-[[2-[2-[2-[[2-[2-[2-[[(4S)-4-carboxy-4-(15-carboxypentadecanoylamino)butanoyl]amino]ethoxy]ethoxy]acetyl]amino]ethoxy]ethoxy]acetyl]amino]butanoyl]amino]butanoyl]-[Val16,Lys24,Leu27,Ser28]-Glucagon] (H-HSQGTFTSDYSKYLDVRRAQDFVK([γGlu-γGlu-AEEA-AEEA-γGlu-C16 diacid])WLLST-OH; N-terminus and C-terminus assumed), it took 0.009 nM to reach a half-maximal effect on glucagon receptor (EC50). Moreover, the “Chemical stability [Purity loss/14 days 37 C.]” value in data set [1] stood at 5.1%.

On glucagon receptor, `CC(C)C[C@H](NC(=O)[C@H](Cc1ccc(O)cc1)NC(=O)[C@H](CCCNC(=N)N)NC(=O)[C@H](CO)NC(=O)[C@H](Cc1ccc(O)cc1)NC(=O)[C@H](CC(=O)O)NC(=O)[C@H](CO)NC(=O)[C@@H](NC(=O)[C@H](Cc1ccccc1)NC(=O)[C@@H](NC(=O)CNC(=O)[C@H](CCC(N)=O)NC(=O)[C@H](CO)NC(=O)[C@@H](N)Cc1c[nH]cn1)[C@@H](C)O)[C@@H](C)O)C(=O)N[C@@H](CC(=O)O)C(=O)N[C@@H](C)C(=O)N[C@@H](CCCNC(=N)N)C(=O)N[C@@H](CCCNC(=N)N)C(=O)N[C@@H](C)C(=O)N[C@@H](CCC(N)=O)C(=O)N[C@@H](CC(=O)O)C(=O)N[C@@H](Cc1ccccc1)C(=O)N[C@H](C(=O)N[C@@H](CCCCNC(=O)CC[C@H](NC(=O)CC[C@H](NC(=O)CC[C@H](NC(=O)CC[C@H](NC(=O)CCCCCCCCCCCCCCCCC(=O)O)C(=O)O)C(=O)O)C(=O)O)C(=O)O)C(=O)N[C@@H](Cc1c[nH]c2ccccc12)C(=O)N[C@@H](CC(C)C)C(=O)N[C@@H](CC(C)C)C(=O)N[C@@H](CO)C(=O)N[C@H](C(=O)O)[C@@H](C)O)C(C)C` [Example 96, N^ε24-[(4S)-4-carboxy-4-[[(4S)-4-carboxy-4-[[(4S)-4-carboxy-4-[[(4S)-4-carboxy-4-(17-carboxyheptadecanoylamino)butanoyl]amino]butanoyl]amino]butanoyl]amino]butanoyl]-[Arg12,Ala16,Lys24,Leu27,Ser28]-Glucagon] (H-HSQGTFTSDYSRYLDARRAQDFVK([γGlu-γGlu-γGlu-γGlu-C18 diacid])WLLST-OH; N-terminus and C-terminus assumed) registered an EC50 of 0.062 nM. For the same compound, the “Chemical stability [Purity loss/14 days 37 C.]” value in data set [1] was 4.5%.
